The text below walks through data of patent US20120238447A1 (priority 2009, published 2012).

One experiment deals with Septoria tritici. The experiment can be described thus: Activity against leaf blotch on wheat caused by Septoria tritici (microtiter plate test). Format: cell-based. As to conditions: MTP, 405 nm, 7 days after inoculation, 18° C.
The test system of a further experiment is Pyricularia oryzae. The experiment is classed as cell-based. As to conditions: MTP, 405 nm, 7 days after inoculation, 18° C, efficacy from relative growth in %.

Read-outs that look alike come from different tables or passages of the source.

For the compound `COC(=O)N(OC)c1ccccc1COc1ccn(-c2ccc(Cl)cc2)n1` [pyraclostrobin], the Observed efficacy in the experiment with Septoria tritici (Pyraclostrobin alone, 0.001 ppm) amounted to 7; in the experiment on Pyricularia oryzae (pyraclostrobin alone, 0.004 ppm) it was 23.

`CCOC(=O)CSc1nc(C(C)(C)C)nn1C(=O)N(C)C` [triazamat, triazamate]: the Observed efficacy in the experiment with Septoria tritici (Triazamat alone, 0.25 ppm) is reported as 4; with Pyricularia oryzae (triazamat alone, 1 ppm), 4.
